# Laboratory results reported in PubChem BioAssay AID624474 (Sanford-Burnham Center for Chemical Genomics, 2012).
# Molecular target: Protein skinhead-1 (Caenorhabditis elegans) (UniProt P34707)
# Experiment: C. elegans SKN-1 blockade, concentration series – fluorescence ratio readout, dose response (AID 624474)
# Conditions: SKN-1 inhibitor fluorescence ratio assay
# Chain of Protein skinhead-1 (Caenorhabditis elegans) (P34707 whole entry, looked up): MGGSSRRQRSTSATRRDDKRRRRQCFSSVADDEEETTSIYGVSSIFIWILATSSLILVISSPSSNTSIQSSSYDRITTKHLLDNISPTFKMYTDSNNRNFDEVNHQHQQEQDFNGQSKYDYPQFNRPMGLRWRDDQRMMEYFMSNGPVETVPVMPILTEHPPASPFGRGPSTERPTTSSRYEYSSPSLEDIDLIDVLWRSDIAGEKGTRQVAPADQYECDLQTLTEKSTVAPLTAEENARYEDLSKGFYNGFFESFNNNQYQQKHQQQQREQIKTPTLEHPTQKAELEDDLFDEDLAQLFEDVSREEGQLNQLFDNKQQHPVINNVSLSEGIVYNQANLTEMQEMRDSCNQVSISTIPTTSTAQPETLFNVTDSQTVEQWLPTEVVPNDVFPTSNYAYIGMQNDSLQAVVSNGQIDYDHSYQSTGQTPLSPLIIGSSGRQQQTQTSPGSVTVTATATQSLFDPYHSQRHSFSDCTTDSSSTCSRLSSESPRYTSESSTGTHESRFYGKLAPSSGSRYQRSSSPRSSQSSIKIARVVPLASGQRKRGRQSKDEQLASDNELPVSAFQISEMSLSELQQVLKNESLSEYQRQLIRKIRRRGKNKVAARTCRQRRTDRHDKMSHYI
row,IC50 [µM],Compound
1,13.9,Brc1ccc(-c2nnc(-c3ccco3)o2)cc1
2,30.6,Clc1ccc(Cn2cc(Br)cn2)cc1Cl
3,9.41,O=C(/C=C/c1ccc(Br)cc1)c1ccc(NC2=NCCCS2)cc1
4,19.5,COc1cc(CNC(C)(C)CO)cc(Br)c1OCc1ccc(Cl)cc1
